The values that follow come from patent US20090275667A1, “USE OF ALLICIN AS PRESERVATIVE, AS DISINFECTANT, AS ANTIMICROBIAL OR AS BIOCIDAL AGENT” (Stone Island Holdings Ltd, priority 2003, published 2009).

For orientation: zone of inhibition means the extent of the growth-free halo in a diffusion test. One may read the MIC as the least concentration at which growth counts as inhibited. A high value points to a need for much substance.

Holding throughout (type): cell-based
The test system of one assay is Ascosphaera apis. The assay can be described thus: Disk diffusion test (Kirby-Bauer), zone of inhibition. The following applies: 6 mm paper disc containing 5 μg of tylosin. The method, then: (§1) Allicin (Allisure™ Liquid) was tested against bacterial and fungal pathogens using a standard disk diffusion method (per Norrell & Messley). The aliquots of bacterial or fungal spores (100 μl of approximately 10^8-10^9 spores/ml) were plated on Mueller-Hinton agar medium, 4.0 mm depth. The 6 mm paper discs containing 250 μg of allicin or 5 μg of tylosin (positive control) were placed in the center of each plate. Plates were incubated at 33° C. and 6% CO2 and a zone of inhibition was measured 24 h, 48 h or 76 h post inoculation depending on the microbial species. All experiments were replicated at least three times.

The test system of assay [1] is Paenibacillus larvae subsp. larvae. Described as above. To be noted: 6 mm paper disc containing 5 μg of tylosin. The method, then:
as §1

The test system of a further assay is Ascosphaera aggregata. The assay is described as above. The following applies: 6 mm paper disc containing 5 μg of tylosin. The procedure:
as §1

Assay [2] has as its system Paenibacillus larvae subsp. pulvifaciens. The assay is described as above. To be noted: 6 mm paper disc containing 5 μg of tylosin. The procedure:
as §1

In assay [3] the test system is Paenibacillus larvae subsp. larvae. As to the kind of experiment: MIC by broth microdilution, bee pathogens. The following applies: range 1000 ppm to 0.25 ppm. The text has this:
(§2) We tested allicia (Allisure™ Liquid) activity against several species of entomopathogenic bacteria (Paenibacillus larvae subsp. larvae, Paenibacillus larvae subsp. pulvifaciens) and fungi (Ascosphaera apis and Ascosphaera aggregata) using broth microdilution method to determine minimum inhibitory concentration (MIC) and the agar diffusion test (Kirby-Bauer) to determine zone of inhibition. Bacterial spores were isolated from the diseased honey bee larval samples. A small aliquot of heat-treated bacterial spores was suspended in 100 μl of phosphate buffered saline-pH 7.2 (PBS) and plated on semi-selective J. Agar medium, containing Nalidixic and Pipemidic acid (Alippi, A M (1995) Detection of Bacillus larvae spores in Argentinian honeys by using a semi-selective medium. Microbiologia 1995 11(3): 343-50; and Govan, V A; Allsopp, M H; Davison, S A (1999) PCR Detection Method for Rapid Identification of Paenibacillus larvae. Applied and Environmental Microbiology 65(5): 2243-2245.
(§3) The plates were incubated at 33° C. in air containing 6% CO2 and 95% RH. The initial species identification was based on morphological, biological and cultural characteristics. The bacterial culture was tested for a catalase reaction (Leboffe, M. J and Pierce, B e (1999) A photographic atlas for the microbiology laboratory. Morton Publishing Company. 254 pp). The bacterial colonies were characterized by shape, margins and color. Gram-positive stained smears (Gram-stain Reagents Kit, EMD Chemicals Inc., NJ) were examined for morphological identification of vegetative cells and spores.
(§4) DNA based PCR identification was performed to corroborate identification of the bacterial species. Bacterial cells from culture plates were added directly to 30 μl of PCR reaction. The PCR primers used in the reaction were based on the 16S RNA sequence to selectively amplify a fragment of 973 by unique to P. larvae (Govan et al., 1999). The PCR products were visualized by 0.8% agarose gel electrophoresis in TAE buffer and ethidium bromide staining. The reference strains of bacteria were used as a control in PCR reactions and were provided by the National Center for Agricultural Research, Peoria, Ill. P. l. larvae (NRRL B-3560, B-2605) and P. l. palvifaciens (NRRL B-3688, B-3685, B-3689, NRS-1687, P. alvei B383).
(§5) Positive controls contained the antibiotic Tylosin (Tylan® 50, Elanco Animal Health Inc., IN) and negative controls contained no antibiotics. […] The optical densities of cultures (OD 600) were recorded 24 h and 48 h post inoculation, depending on the growth rate of the microbial species. […] Minimum bactericidal concentration values (NBC) were determined for allicin by plating out 100 μl of bacterial cultures derived from the MIC assay. […]
A general note: In broth dilution the organism is exposed to a series of concentrations in liquid medium.

Assay [4] deals with Paenibacillus larvae subsp. pulvifaciens. As to the kind of experiment: MIC by broth microdilution, bee pathogens. The following applies: range 1000 ppm to 0.25 ppm.
Text: as §2, §3, §4, §5

Some results are limits rather than exact numbers.

For the compound `CC[C@H]1OC(=O)C[C@@H](O)[C@H](C)[C@@H](O[C@@H]2O[C@H](C)[C@@H](O[C@H]3C[C@@](C)(O)[C@@H](O)[C@H](C)O3)[C@H](N(C)C)[C@H]2O)[C@@H](CC=O)C[C@@H](C)C(=O)/C=C/C(C)=C/[C@@H]1CO[C@@H]1O[C@H](C)[C@@H](O)[C@@H](OC)[C@H]1OC` [tylosin, reference compound], the results for the zone of inhibition (in the assay with Ascosphaera apis; in the assay with Ascosphaera aggregata; in assay [2]) were 0.0 mm, 0.0 mm and 14-16 mm, respectively. Also, the “growth inhibition in agar diffusion test” value in assay [1] is “completely inhibited”. In addition, the MIC in assay [3] and in assay [4] was under 0.25 µg/mL each time.
